The values that follow come from publication PMC8634768 (ChemistryOpen, 2021).

One assay deals with Hsp90α (Homo sapiens, UniProt P07900). In words: fluorescence polarization competition with FITC-geldanamycin. The class given is binding. Background: In fluorescence polarisation assays a small probe gives low polarisation when free and higher when bound to something large.
The target in the next assay is PDHK1 (Homo sapiens, UniProt Q15118). In words: HotSpot […]-ATP radiometric filter-binding kinase assay. It is filed as biochemical.

Usually IC50 stands for the concentration at which inhibition is half-maximal. Read a low IC50 as inhibition by little substance.

PDHK1, sequence (Q15118 29-436): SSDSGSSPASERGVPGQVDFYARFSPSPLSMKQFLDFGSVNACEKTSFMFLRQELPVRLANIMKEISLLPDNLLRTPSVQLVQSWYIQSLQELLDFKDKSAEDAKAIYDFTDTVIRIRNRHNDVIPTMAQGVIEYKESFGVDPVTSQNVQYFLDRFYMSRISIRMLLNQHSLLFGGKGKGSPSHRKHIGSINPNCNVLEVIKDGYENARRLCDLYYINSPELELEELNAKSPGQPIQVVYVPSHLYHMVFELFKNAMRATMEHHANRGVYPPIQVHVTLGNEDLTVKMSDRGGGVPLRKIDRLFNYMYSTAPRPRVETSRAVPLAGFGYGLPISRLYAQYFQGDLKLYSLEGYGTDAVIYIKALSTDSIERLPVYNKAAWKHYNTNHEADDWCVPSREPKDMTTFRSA

Regarding `CCCS(=O)(=O)Nc1ccc(F)c(NC(=O)c2nnn(-c3cc(C(C)C)c(O)cc3O)c2-c2ccncc2)c1F` [4d, N‐[2,6‐difluoro‐3‐(propylsulfonamido)phenyl]‐1‐(2,4‐dihydroxy‐5‐isopropylphenyl)‐5‐(pyridin‐4‐yl)‐1H‐1,2,3‐triazole‐4‐carboxamide], the IC50 is 30 nM at Hsp90α and 38300 nM at PDHK1.

Take `CC(C)c1cc(-n2nnc(C(=O)Nc3cccc(NS(C)(=O)=O)c3)c2-c2ccncc2)c(O)cc1O` [4a, 1‐(2,4‐dihydroxy‐5‐isopropylphenyl)‐N‐[3‐(methylsulfonamido)phenyl]‐5‐(pyridin‐4‐yl)‐1H‐1,2,3‐triazole‐4‐carboxamide]: the IC50 came out at 7 nM on Hsp90α and 28700 nM on PDHK1.

Turning to `CCS(=O)(=O)Nc1ccc(F)c(NC(=O)c2nnn(-c3cc(C(C)C)c(O)cc3O)c2-c2ccncc2)c1F` [4c, 1‐(2,4‐dihydroxy‐5‐isopropylphenyl)‐N‐[3‐(ethylsulfonamido)‐2,6‐difluorophenyl]‐5‐(pyridin‐4‐yl)‐1H‐1,2,3‐triazole‐4‐carboxamide], the IC50 on Hsp90α is 1100 nM.

As to `O=C1Nc2ccc(I)cc2C1=Cc1cc(Br)c(O)c(Br)c1` [GW5074, reference compound], at PDHK1, the IC50 was found to be 7100 nM.

Regarding `CC(C)c1cc(-n2nnc(C(=O)Nc3c(F)ccc(NS(C)(=O)=O)c3F)c2-c2ccncc2)c(O)cc1O` [4b, N‐[2,6‐difluoro‐3‐(methylsulfonamido)phenyl]‐1‐(2,4‐dihydroxy‐5‐isopropylphenyl)‐5‐(pyridin‐4‐yl)‐1H‐1,2,3‐triazole‐4‐carboxamide], at Hsp90α, the concentration for half-maximal inhibition (IC50) amounted to 1700 nM.
